In patent US11484608B2, “Non-invasive assessment of hepatic mitochondrial metabolism by positional isotopomer NMR tracer analysis (PINTA)” (YALE UNIVERSITY, priority 2017, dated 2022):

Assays:
[1] = system: hepatic mitochondrial fluxes (VPC, VCS); assay: PINTA / ex vivo NMR tracer study in rats infused with [3-^13C]lactate and [3-^3H]glucose (Example 1); details: for VPDH/VCS (%) / VPK+ME/VPC+PDH (%): rat liver; for VPDH/VCS (%) / VPK+ME/VPC+PDH (%) / VPC/VEGP (%): 120 min [3-^13C]lactate infusion, mean ± S.E.M.; for VPC/VEGP (%): rats
From the text: Male Sprague-Dawley rats (˜10 weeks of age) were ordered from Charles River (Wilmington, Mass.) at ˜300 g and fed regular chow unless otherwise specified. […] Prior to studies, rats underwent surgery under general isoflurane anesthesia to place polyethylene catheters in the jugular vein and common carotid artery (PE90 and PE50 tubing, respectively; Instech, Plymouth Meeting, Pa.). After 1 week, recovery was verified by confirming that the rats had regained their surgical weight. Unless otherwise specified, all experiments were performed following an overnight fast (16 hrs food withdrawal prior to sacrifice). In both the rodent and human studies, data are represented as the mean of two technical replicates for each subject (i.e. two technical replicates per biological replicate). Sample sizes were selected to give power to detect moderate to large differences between groups (n=5-6 per group), and all animals were included in the final analysis.
The investigator performing the animal studies was not blinded for practical reasons, but the investigators analyzing fluxes were blinded as to the group allocation.
The flux calculations required the following equations using [^13C] glucose positional enrichment in plasma or liver, determined by NMR and GC/MS mass spectrometry. VPC is the rate of pyruvate carboxylase flux as determined from the anaplerotic flow into oxaloacetate (OAA). VCS is defined as the flux of the citrate synthase reaction in the citric acid cycle. […] G2 denotes [m+2] glucose arising from the condensation of two singly-labeled trioses.
GC/MS was used to measure m+1 and m+2 [^13C]glucose enrichment. The total m+1 and m+2 [^13C]glucose enrichment was measured using a pentaacetate derivative: plasma or liver samples were deproteinized using 5 volumes of methanol, dried, and derivatized with 75 μL of 1:1 acetic anhydride:pyridine. After heating to 65° C. for 20 min, the reaction was terminated by adding 25 μL methanol, and m+1 and m+2 (as well as m+3 . . . m+6) were determined by GC/MS (CI mode, m/z 331 [m], 332 [m+1], 333 [m+2], . . . 337 [m+6]). The m+1 and m+2 [^13C] enrichments of the glucose C4C5C6 fragment were determined by generating the aldonitrile pentapropionate derivative: plasma or NMR liver extract samples were dried under N2 gas, and 50 μl hydroxylamine hydrochloride (20 mg/ml in pyridine) were added. The samples were heated at 90° C. for 60 min, then 100 μl propionic anhydride was added, after which the samples were heated at 60° C. for 30 min. Finally, the samples were evaporated under N2 gas, resuspended in ethyl acetate, and the m+1 and m+2 enrichment of the glucose C4C5C6 fragment was measured by GC/MS.
[^13C]alanine enrichment was measured by GC/MS. [^13C] NMR spectroscopy using the BRUKER TOPSPIN® system was utilized to measure relative positional 13C-enrichment of glucose, and combined with the total [^13C]glucose enrichment ([m+1]+2*[m+2]) measured by GC/MS to calculate the positional enrichment of [13C]glucose.
Total [^13C]glutamate enrichment was determined by LC-MS/MS. Approximately 100 mg of liver tissue was weighed out and homogenized in 500 μl ice-cold methanol using a TissueLyser, then centrifuged at 4000 rpm for 10 minutes. The supernatant was then purified by centrifugation (4000 rpm, 10 min) through the PALL NANOSEP® filter (100K) (Port Washington, N.Y.). Glutamate 13C enrichment ([m+1], [m+2]) was then assessed by LC-MS/MS using an AB SCIEX QTRAP 6500 (Framingham, Mass.), equipped with a SHIMADZU ultra-fast liquid chromatography (UFLC) system (Columbia, Md.) and electrospray ionization (ESI) source with negative-ion detection. The measured ion pairs were 146/128 (m0), 147/129 (m+1), and 148/130 (m+2).
Positional enrichment of glucose, glutamate, and alanine was measured by 13C NMR.

[2] = system: primary mouse hepatocytes; assay: In vitro glucose production, VPC and lipolysis in isolated hepatocytes; assay type: cell-based; details: isolated hepatocytes, 1 mM hydroxymalonate
Procedure: For in vitro glucose production and lipolysis studies, primary mouse hepatocytes were isolated by the Yale Liver Center. Following removal of cell debris by Percoll density gradient centrifugation, cells were plated on 6-well collagen-I coated dishes (4.0×10^5 cells/well) in 2 ml recovery media (DMEM High Glucose containing 10% FBS, 2% penicillin-streptomycin, 100 nM dexamethasone, 1 nM insulin, and 10 mM HEPES). After incubation for 6 hr at 37° C. and 5% CO2, the attached cells were washed once in 1×PBS and then incubated overnight in 2 ml Low Glucose Culture Media (DMEM Low Glucose supplemented with 10% FBS, 2% penicillin-streptomycin and 10 mM HEPES for glucose production studies) or Serum Free Low Glucose Culture Media (DMEM Low Glucose supplemented with 0.5% fatty acid free BSA, 2% penicillin-streptomycin and 10 mM HEPES for lipolysis assays). […] After incubation for 8 hr at 37° C. and 5% CO2, cell culture media was collected for analysis of glucose, NEFA, and glycerol concentrations as described above. VPC was determined by measuring VPC/VEGP by PINTA as described above using 300 μL of the collected media, and multiplying this ratio by the measured glucose production rate. In a subset of studies, cells were incubated for 8 hr during the glucose production assay in media containing one of the following agents (all dissolved in 0.5% DMSO), or 0.5% DMSO vehicle: 20 μM ET-18-OCH3 (Santa Cruz), 100 μM U-73122 (Sigma), 30 nM thapsigargin (Sigma), 100 nM vasopressin (Sigma) 50 μM 2-APB (R&D Systems), 70 μM caffeine (Sigma), 1 mM malic enzyme inhibitor hydroxymalonate (Sigma). To inhibit PKA, hepatocytes were incubated in H-89 […] hydrate (Sigma, 25 μM) dissolved in media, or media lacking H-89 as a control. In the insulin treatment studies, hepatocytes were incubated in 1 nM insulin with 5% BSA and glucose production media for the duration of the glucose production assay. In the in vitro atglistatin study, hepatocytes were incubated in 10 μM atglistatin in 0.1% EtOH, or 0.1% EtOH vehicle. All values were normalized to total protein content determined from whole-cell lysates by a BCA protein assay (Thermo Fisher Scientific) according to the manufacturer's instructions and expressed as fold change verses vehicle-treated cells.

CPT-1 = molecular target: T1, CPT-1 (Rattus norvegicus, UniProt P32198); assay: CPT-1 inhibitor etomoxir in 0, 6, 16 and 48 hr fasted rats; assay type: in vivo
T1 construct: from tissue; host or cells: live rat, in vivo (intraperitoneal dosing); liver is the tissue discussed
T1 sequence (P32198 1-773): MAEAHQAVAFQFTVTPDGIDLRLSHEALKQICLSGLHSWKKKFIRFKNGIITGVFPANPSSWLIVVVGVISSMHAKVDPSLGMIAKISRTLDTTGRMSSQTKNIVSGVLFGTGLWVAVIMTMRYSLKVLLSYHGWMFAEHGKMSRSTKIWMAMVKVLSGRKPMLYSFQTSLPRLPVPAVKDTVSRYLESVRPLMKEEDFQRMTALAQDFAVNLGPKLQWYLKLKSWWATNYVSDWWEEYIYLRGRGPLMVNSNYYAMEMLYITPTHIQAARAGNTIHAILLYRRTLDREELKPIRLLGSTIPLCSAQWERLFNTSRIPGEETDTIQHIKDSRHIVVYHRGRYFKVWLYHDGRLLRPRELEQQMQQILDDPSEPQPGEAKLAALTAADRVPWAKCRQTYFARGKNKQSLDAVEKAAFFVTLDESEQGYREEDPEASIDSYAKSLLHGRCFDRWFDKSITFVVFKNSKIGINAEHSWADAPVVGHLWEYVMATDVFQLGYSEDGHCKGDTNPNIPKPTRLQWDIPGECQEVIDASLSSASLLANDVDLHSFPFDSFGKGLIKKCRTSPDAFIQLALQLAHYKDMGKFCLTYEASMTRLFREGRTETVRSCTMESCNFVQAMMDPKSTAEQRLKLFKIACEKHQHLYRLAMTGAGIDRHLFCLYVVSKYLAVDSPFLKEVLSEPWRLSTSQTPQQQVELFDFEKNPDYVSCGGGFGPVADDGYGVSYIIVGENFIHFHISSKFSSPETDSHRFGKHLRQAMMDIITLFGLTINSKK
Procedure: 8, 16, and 48 hr fasted rats were injected with a small molecule inhibitor of glycogen phosphorylase, 1-(3-(3-(2-Chloro-4,5-difluorobenzoyl) ureido)-4-methoxyphenyl)-3-methylurea (Sigma #361515; 5 mg/kg IV) and a tracer infusion of [2,3,3,3-^2H4]alanine ([…]prime for 5 min and […] continuous) and [3-^3H]glucose (0.3 μCi/min prime for 5 min and 0.3 μCi/min continuous) as well as [^13C4] β-hydroxybutyrate, [1,1,2,3,3-^2H5]glycerol, and [^13C16]palmitate at the rates listed in Table 9, for 120 min. Blood samples were obtained before (time zero) and 120 min after treatment with the glycogen phosphorylase inhibitor for measurement of turnover rates and plasma hormone/substrate concentrations. Hepatic acetyl-CoA content was altered by treatment with a CPT-1 inhibitor (etomoxir, 8 mg/kg) or an ATGL inhibitor (atglistatin, […]) in 0, 6, 16, and 48 hr fasted rats. Both agents were solubilized by suspending the drug in 4% ethanol/96% normal saline, heating to 60° C., and sonicating, and were cooled to room temperature before they were injected intraperitoneally. […] In these animals plasma glucose concentrations were measured every 15 minutes and a variable infusion of 20% glucose (Pfizer Hospira, Lake Forest, Ill.) was used to maintain plasma glucose concentrations ˜3.6-3.7 mM. The physiologic role of glucocorticoids was assessed in 6 and 48 hr fasted rats by treatment with a glucocorticoid receptor antagonist, mifepristone. Following a 2 hr tracer infusion at the rates described above to assess fatty acid, glycerol, glucose, and β-hydroxybutyrate turnover, rats were injected with mifepristone (40 mg/kg) IV. The tracer infusion was continued and the tracer of each of the above substrates was again measured 2 hr after treatment with mifepristone.
All whole-body substrate turnover rates were calculated using the equation Turnover=([Tracer APE/Plasma APE]−1)*Infusion rate, where APE designates the atom percent enrichment measured by mass spectrometry as described below (Biochemical Analysis). All chemicals used for flux analysis were obtained from SIGMA. Turnover of glucose, glycerol, and β-hydroxybutyrate were determined by gas chromatography-mass spectrometry (GC-MS). Briefly, both glucose and glycerol were deprotonized with 5 volumes of methanol, derivitized with 3 volumes of 1:1 acetic anhydride:pyridine, heated to 65° C. for 20 min, and 1 volume of methanol was added, then GC-MS was used in CI mode to measure glucose enrichment and EI mode to measure glycerol enrichment, with turnover calculated using the equation above. β-Hydroxybutyrate was deprotonized with 5 volumes of methanol and derivitized with 3 volumes of n-butanol 4N HCl, after which the samples were heated to 65° C. for 60 min, evaporated under N2 gas, and re-suspended in […] of trifluoroacetic acid:methylene chloride (1:7). Fatty acid turnover was measured by determining the plasma palmitate enrichment by GC-MS. Samples were prepared for measurements of palmitate enrichment by evaporating […] plasma, dissolving in […] 1:1 chloroform:methanol and derivitizing with […] boron trifluoride/methanol, then heating to 100° C. for 5 min, adding 2 mL pentane and 1 mL water, and centrifuging at low speed for 5 min. […] Alanine turnover was determined in rats infused with [2,3,3,3-^2H4]alanine by preparing samples to measure alanine enrichment by GC/MS (CI mode) using the same protocol as was employed to measure β-hydroxybutyrate enrichment.

[13CH3]C(O)C(=O)O (stereo not shown) [[3-^13C]lactate]
plasma lactate enrichment ([1]; rats infused with 40 μmol/(kg-min)): ~45%

CNC[C@H](O)c1ccc(O)c(O)c1 [Epinephrine, epinephrine]
VPDH/VCS (%) [1]: 4.3 ± 1.0% | VPK+ME/VPC+PDH (%) [1]: 5.4 ± 0.1% | VPC/VEGP (%) [1]: 67 ± 2%

O=C(O)C(O)C(=O)O [ME inhibitor, hydroxymalonate]
basal or glucagon-stimulated glucose production or VPC [2]: no impact | VPDH/VCS (%) [1]: 2.0 ± 1.1% | VPK+ME/VPC+PDH (%) [1]: 7.9 ± 2.1% | VPC/VEGP (%) [1]: 50 ± 2%

CCOC(=O)[C@@]1(CCCCCCOc2ccc(Cl)cc2)CO1 [etomoxir]
plasma corticosterone concentrations (CPT-1; 16- and 48-hr fasted rats): increases | reductions in plasma leptin concentrations (CPT-1; 16- and 48-hr fasted rats): 50% | hepatic acetyl-CoA content, hepatic gluconeogenesis, and plasma glucose and insulin concentrations (CPT-1; 16- to 48-hr fasted rats): suppressed | WAT lipolysis (CPT-1; fasted rats): increased | hepatic acetyl-CoA content (CPT-1; fasted rats): suppression | plasma epinephrine or norepinephrine concentrations (CPT-1; fasted rats): no differences | plasma lactate and hepatic malonyl-CoA concentrations (CPT-1; fasted rats): unchanged | β-hydroxybutyrate turnover (CPT-1; fasted rats): suppression | plasma glucose concentrations (CPT-1; fasted rats, 8 mg/kg IP, 2 hr): lowered | plasma insulin concentrations (CPT-1; fasted rats, 8 mg/kg IP, 2 hr): lowered | whole body glucose turnover (CPT-1; fasted rats, 8 mg/kg IP, 2 hr): lowered
